From patent US20250098679A1, “HERBICIDAL PYRIDONE DERIVATIVES” (SYNGENTA CROP PROTECTION AG, priority 2021, published 2025)

Tests used:
Assay type in all cases: in vivo
[1] = tested on: Setaria faberi (SETFA); test: Post-emergence Test, Setaria faberi (SETFA); design: key to percentage damage caused to the plant, SETFA (five-point scale): 5=81-100%, 4=61-80%, 3=41-60%, 2=21-40%, 1=0-20% damage; conditions: 1000 g/ha, evaluated after 13 days
Method in brief: (§1)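 Sown pots in a glasshouse (24/16 °C day/night, 14 h light, 65% humidity) were sprayed with compound in acetone/water (50:50) with 0.5% Tween 20, at 1000 g/ha unless otherwise stated. Damage was assessed 13 days after spraying and scored 1–5 (5=81-100%, 1=0-20%).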

[2] = tested on: Amaranthus retoflexus (AMARE); test: Post-emergence Test, Amaranthus retoflexus (AMARE); design: key to percentage damage caused to the plant, AMARE (five-point scale): 5=81-100%, 4=61-80%, 3=41-60%, 2=21-40%, 1=0-20% damage; conditions: evaluated after 13 days
Method in brief: as §1

[3] = tested on: Amaranthus palmeri (AMAPA); test: Pre-emergence Test, Amaranthus palmeri (AMAPA); conditions: evaluated after 13 days
[4] = tested on: Echinochloa crus-galli (ECHCG); test: Pre-emergence Test, Echinochloa crus-galli (ECHCG); conditions: evaluated after 13 days
[5] = tested on: Amaranthus palmeri (AMAPA); test: Post-emergence Test, Amaranthus palmeri (AMAPA); design: key: 5=81-100%, 4=61-80%, 3=41-60%, 2=21-40%, 1=0-20% damage; conditions: evaluated after 13 days
Method in brief: as §1

[6] = tested on: Ipomoea hederacea (IPOHE); test: Pre-emergence Test, Ipomoea hederacea (IPOHE); conditions: evaluated after 13 days
[7] = tested on: Zea mays (ZEAMX); test: Pre-emergence Test, Zea mays (ZEAMX); conditions: evaluated after 13 days
[8] = tested on: Amaranthus retoflexus (AMARE); test: Pre-emergence Test, Amaranthus retoflexus (AMARE); conditions: evaluated after 13 days
[9] = tested on: Zea mays (ZEAMX); test: Post-emergence Test, Zea mays (ZEAMX); design: key to percentage damage caused to the plant, ZEAMX (five-point scale): 5=81-100%, 4=61-80%, 3=41-60%, 2=21-40%, 1=0-20% damage; conditions: evaluated after 13 days
Method in brief: as §1

[10] = tested on: Echinochloa crus-galli (ECHCG); test: Post-emergence Test, Echinochloa crus-galli (ECHCG); design: key to percentage damage caused to the plant, ECHCG (five-point scale): 5=81-100%, 4=61-80%, 3=41-60%, 2=21-40%, 1=0-20% damage; conditions: evaluated after 13 days; for percentage damage caused to the plant, ECHCG (five-point scale): 250 g/Ha; for Post-emergence Test ECHCG, percentage damage caused to the plant (five-point scale): 250 g/Ha (*)
Method in brief: as §1

[11] = tested on: Ipomoea hederacea (IPOHE); test: Post-emergence Test, Ipomoea hederacea (IPOHE); design: key to percentage damage caused to the plant, IPOHE (five-point scale): 5=81-100%, 4=61-80%, 3=41-60%, 2=21-40%, 1=0-20% damage; conditions: evaluated after 13 days
Method in brief: as §1

## CCn1c(Cn2nc(C(F)F)cc2C)cc(=O)c(C(=O)O)c1-c1ccc(Cl)c(Cl)c1 [Compound 187, 2-(3,4-dichlorophenyl)-6-[[3-(difluoromethyl)-5-methyl-pyrazol-1-yl]methyl]-1-ethyl-4-oxo-pyridine-3-carboxylic acid]
[1]
  percentage damage caused to the plant, SETFA (five-point scale): 1 (1=0-20%)
[2]; 250 g/Ha
  percentage damage caused to the plant, AMARE (five-point scale): 0
[2]; 1000 g/ha
  percentage damage caused to the plant, AMARE (five-point scale): 1 (1=0-20%)
[3]; 1000 g/ha
  Pre-emergence Test AMAPA, percentage damage caused to the plant (five-point scale): 0
[4]; 1000 g/ha
  Pre-emergence Test ECHCG, percentage damage caused to the plant (five-point scale): 1 (1=0-20%)
[5]; 250 g/Ha
  percentage damage caused to the plant, AMAPA (five-point scale): 0
[5]; 1000 g/ha
  percentage damage caused to the plant, AMAPA (five-point scale): 1 (1=0-20%)
[6]; 1000 g/ha
  Pre-emergence Test IPOHE, percentage damage caused to the plant (five-point scale): 3 (3=41-60%)
[7]; 1000 g/ha
  Pre-emergence Test ZEAMX, percentage damage caused to the plant (five-point scale): 1 (1=0-20%)
[8]; 1000 g/ha
  Pre-emergence Test AMARE, percentage damage caused to the plant (five-point scale): 0
[9]; 250 g/Ha
  percentage damage caused to the plant, ZEAMX (five-point scale): 0
[9]; 1000 g/ha
  percentage damage caused to the plant, ZEAMX (five-point scale): 1 (1=0-20%)
[10]
  percentage damage caused to the plant, ECHCG (five-point scale): 2 (2=21-40%)
[11]; 250 g/Ha
  percentage damage caused to the plant, IPOHE (five-point scale): 1 (1=0-20%)
[11]; 1000 g/ha
  percentage damage caused to the plant, IPOHE (five-point scale): 4 (4=61-80%)

## CCn1c(Cn2nccc2COC)cc(=O)c(C(=O)O)c1-c1ccc(Cl)c(Cl)c1 [Compound 190, 2-(3,4-dichlorophenyl)-1-ethyl-6-[[5-(methoxymethyl)pyrazol-1-yl]methyl]-4-oxo-pyridine-3-carboxylic acid]
[1]
  percentage damage caused to the plant, SETFA (five-point scale): 4 (4=61-80%)
[2]; 250 g/Ha
  percentage damage caused to the plant, AMARE (five-point scale): 1 (1=0-20%)
[2]; 1000 g/ha
  percentage damage caused to the plant, AMARE (five-point scale): 2 (2=21-40%)
[3]; 250 g/Ha (*)
  Pre-emergence Test AMAPA, percentage damage caused to the plant (five-point scale): 0
[3]; 1000 g/ha
  Pre-emergence Test AMAPA, percentage damage caused to the plant (five-point scale): 1 (1=0-20%)
[4]; 250 g/Ha (*)
  Pre-emergence Test ECHCG, percentage damage caused to the plant (five-point scale): 1 (1=0-20%)
[4]; 1000 g/ha
  Pre-emergence Test ECHCG, percentage damage caused to the plant (five-point scale): 4 (4=61-80%)
[5]; 250 g/Ha
  percentage damage caused to the plant, AMAPA (five-point scale): 1 (1=0-20%)
[5]; 1000 g/ha
  percentage damage caused to the plant, AMAPA (five-point scale): 1 (1=0-20%)
[6]; 250 g/Ha (*)
  Pre-emergence Test IPOHE, percentage damage caused to the plant (five-point scale): 1 (1=0-20%)
[6]; 1000 g/ha
  Pre-emergence Test IPOHE, percentage damage caused to the plant (five-point scale): 3 (3=41-60%)
[7]; 250 g/Ha (*)
  Pre-emergence Test ZEAMX, percentage damage caused to the plant (five-point scale): 1 (1=0-20%)
[7]; 1000 g/ha
  Pre-emergence Test ZEAMX, percentage damage caused to the plant (five-point scale): 2 (2=21-40%)
[8]; 250 g/Ha (*)
  Pre-emergence Test AMARE, percentage damage caused to the plant (five-point scale): 0
[8]; 1000 g/ha
  Pre-emergence Test AMARE, percentage damage caused to the plant (five-point scale): 1 (1=0-20%)
[9]; 250 g/Ha
  percentage damage caused to the plant, ZEAMX (five-point scale): 0
[9]; 1000 g/ha
  percentage damage caused to the plant, ZEAMX (five-point scale): 3 (3=41-60%)
[10]
  percentage damage caused to the plant, ECHCG (five-point scale): 3 (3=41-60%)
[11]; 250 g/Ha
  percentage damage caused to the plant, IPOHE (five-point scale): 1 (1=0-20%)
[11]; 1000 g/ha
  percentage damage caused to the plant, IPOHE (five-point scale): 3 (3=41-60%)

## CCn1c(Cn2ccc(-c3ccc(F)cc3)n2)cc(=O)c(C(=O)O)c1-c1ccc(Cl)c(Cl)c1 [Compound 193, 2-(3,4-dichlorophenyl)-1-ethyl-6-[[3-(4-fluorophenyl)pyrazol-1-yl]methyl]-4-oxo-pyridine-3-carboxylic acid]
[1]
  percentage damage caused to the plant, SETFA (five-point scale): 0
[2]; 250 g/Ha
  percentage damage caused to the plant, AMARE (five-point scale): 0
[2]; 1000 g/ha
  percentage damage caused to the plant, AMARE (five-point scale): 1 (1=0-20%)
[3]; 1000 g/ha
  Pre-emergence Test AMAPA, percentage damage caused to the plant (five-point scale): 0
[4]; 1000 g/ha
  Pre-emergence Test ECHCG, percentage damage caused to the plant (five-point scale): 0
[5]; 250 g/Ha
  percentage damage caused to the plant, AMAPA (five-point scale): 0
[5]; 1000 g/ha
  percentage damage caused to the plant, AMAPA (five-point scale): 1 (1=0-20%)
[6]; 1000 g/ha
  Pre-emergence Test IPOHE, percentage damage caused to the plant (five-point scale): 1 (1=0-20%)
[7]; 1000 g/ha
  Pre-emergence Test ZEAMX, percentage damage caused to the plant (five-point scale): 0
[8]; 1000 g/ha
  Pre-emergence Test AMARE, percentage damage caused to the plant (five-point scale): 0
[9]; 250 g/Ha
  percentage damage caused to the plant, ZEAMX (five-point scale): 0
[9]; 1000 g/ha
  percentage damage caused to the plant, ZEAMX (five-point scale): 1 (1=0-20%)
[10]
  percentage damage caused to the plant, ECHCG (five-point scale): 3 (3=41-60%)
[11]; 250 g/Ha
  percentage damage caused to the plant, IPOHE (five-point scale): 0
[11]; 1000 g/ha
  percentage damage caused to the plant, IPOHE (five-point scale): 2 (2=21-40%)

## CCn1c(Cn2ccc(-c3cccs3)n2)cc(=O)c(C(=O)O)c1-c1ccc(Cl)c(Cl)c1 [Compound 194, 2-(3,4-dichlorophenyl)-1-ethyl-4-oxo-6-[[3-(2-thienyl)pyrazol-1-yl]methyl]pyridine-3-carboxylic acid]
[1]
  Post-emergence Test SETFA, percentage damage caused to the plant (five-point scale): 3 (3=41-60%)
[2]; 250 g/Ha (*)
  Post-emergence Test AMARE, percentage damage caused to the plant (five-point scale): 0
[2]; 1000 g/ha
  Post-emergence Test AMARE, percentage damage caused to the plant (five-point scale): 2 (2=21-40%)
[3]; 250 g/Ha (*)
  Pre-emergence Test AMAPA, percentage damage caused to the plant (five-point scale): 0
[3]; 1000 g/ha
  Pre-emergence Test AMAPA, percentage damage caused to the plant (five-point scale): 0
[4]; 250 g/Ha (*)
  Pre-emergence Test ECHCG, percentage damage caused to the plant (five-point scale): 1 (1=0-20%)
[4]; 1000 g/ha
  Pre-emergence Test ECHCG, percentage damage caused to the plant (five-point scale): 2 (2=21-40%)
[5]; 250 g/Ha (*)
  Post-emergence Test AMAPA, percentage damage caused to the plant (five-point scale): 0
[5]; 1000 g/ha
  Post-emergence Test AMAPA, percentage damage caused to the plant (five-point scale): 1 (1=0-20%)
[6]; 250 g/Ha (*)
  Pre-emergence Test IPOHE, percentage damage caused to the plant (five-point scale): 1 (1=0-20%)
[6]; 1000 g/ha
  Pre-emergence Test IPOHE, percentage damage caused to the plant (five-point scale): 2 (2=21-40%)
[7]; 250 g/Ha (*)
  Pre-emergence Test ZEAMX, percentage damage caused to the plant (five-point scale): 0
[7]; 1000 g/ha
  Pre-emergence Test ZEAMX, percentage damage caused to the plant (five-point scale): 1 (1=0-20%)
[8]; 250 g/Ha (*)
  Pre-emergence Test AMARE, percentage damage caused to the plant (five-point scale): 0
[8]; 1000 g/ha
  Pre-emergence Test AMARE, percentage damage caused to the plant (five-point scale): 0
[9]; 250 g/Ha (*)
  Post-emergence Test ZEAMX, percentage damage caused to the plant (five-point scale): 1 (1=0-20%)
[9]; 1000 g/ha
  Post-emergence Test ZEAMX, percentage damage caused to the plant (five-point scale): 1 (1=0-20%)
[10]
  Post-emergence Test ECHCG, percentage damage caused to the plant (five-point scale): 2 (2=21-40%)
[11]; 250 g/Ha (*)
  Post-emergence Test IPOHE, percentage damage caused to the plant (five-point scale): 1 (1=0-20%)
[11]; 1000 g/ha
  Post-emergence Test IPOHE, percentage damage caused to the plant (five-point scale): 2 (2=21-40%)

## CCn1c(Cn2nc(-c3ccccc3)cc2C(F)(F)F)cc(=O)c(C(=O)O)c1-c1ccc(Cl)c(Cl)c1 [Compound 198, 2-(3,4-dichlorophenyl)-1-ethyl-4-oxo-6-[[3-phenyl-5-(trifluoromethyl)pyrazol-1-yl]methyl]pyridine-3-carboxylic acid]
[1]
  Post-emergence Test SETFA, percentage damage caused to the plant (five-point scale): 2 (2=21-40%)
[2]; 250 g/Ha (*)
  Post-emergence Test AMARE, percentage damage caused to the plant (five-point scale): 1 (1=0-20%)
[2]; 1000 g/ha
  Post-emergence Test AMARE, percentage damage caused to the plant (five-point scale): 4 (4=61-80%)
[3]; 1000 g/ha
  Pre-emergence Test AMAPA, percentage damage caused to the plant (five-point scale): 1 (1=0-20%)
[4]; 1000 g/ha
  Pre-emergence Test ECHCG, percentage damage caused to the plant (five-point scale): 1 (1=0-20%)
[5]; 250 g/Ha (*)
  Post-emergence Test AMAPA, percentage damage caused to the plant (five-point scale): 1 (1=0-20%)
[5]; 1000 g/ha
  Post-emergence Test AMAPA, percentage damage caused to the plant (five-point scale): 3 (3=41-60%)
[6]; 1000 g/ha
  Pre-emergence Test IPOHE, percentage damage caused to the plant (five-point scale): 0
[7]; 1000 g/ha
  Pre-emergence Test ZEAMX, percentage damage caused to the plant (five-point scale): 1 (1=0-20%)
[8]; 1000 g/ha
  Pre-emergence Test AMARE, percentage damage caused to the plant (five-point scale): 1 (1=0-20%)
[9]; 250 g/Ha (*)
  Post-emergence Test ZEAMX, percentage damage caused to the plant (five-point scale): 1 (1=0-20%)
[9]; 1000 g/ha
  Post-emergence Test ZEAMX, percentage damage caused to the plant (five-point scale): 2 (2=21-40%)
[10]
  Post-emergence Test ECHCG, percentage damage caused to the plant (five-point scale): 2 (2=21-40%)
[11]; 250 g/Ha (*)
  Post-emergence Test IPOHE, percentage damage caused to the plant (five-point scale): 1 (1=0-20%)
[11]; 1000 g/ha
  Post-emergence Test IPOHE, percentage damage caused to the plant (five-point scale): 2 (2=21-40%)
